These results are taken from patent US12059472B2 (Bayer Aktiengesellschaft, priority 2016, dated 2024).

“Also recorded” adds a separate entry of the source. Where a name gives a salt, the structure may show the parent alone.

One data set addresses legumain (Homo sapiens (Human), UniProt Q99538). Description: Legumain assay (cleavage of prodrug). The format is biochemical. Conditions: pH 5.0; for half-life: human, recombinant human legumain, rh legumain 1 ng/μl, 50 mM MES, 250 mM NaCl, read-out: half-life of cleavage to the target compound in the legumain assay (converted). The protocol: The legumain assay was conducted with recombinant human enzyme. The rh legumain enzyme solution (catalogue #2199-CY, R&D Systems) was diluted to the desired concentration in 50 mM Na acetate buffer/100 mM NaCl, pH4.0 and preincubated at 37° C. for 2 h. rh legumain was then adjusted to a final concentration of 1 ng/μl in 50 mM MES buffer, 250 mM NaCl, pH 5.0. For every legumain-cleavable prodrug to be examined, a mixture was made up in a micro reaction vessel (0.5 ml, from Eppendorf). For this purpose, the substrate solution was adjusted to the desired concentration (double concentration) with 50 mM MES buffer, 250 mM NaCl, pH 5.0. For the kinetic measurement of the enzymatic reaction, 250 μl of the legumain solution were first initially charged and the enzyme reaction was started by adding 250 μl of the substrate solution (final concentration: single concentration). At different times, 50 μl samples were taken. This sample was admixed immediately with 100 μl of ice-cold methanol in order to stop the enzymatic reaction and then frozen at −20° C. The times selected for sampling were after 0.5 h, 1 h, 3 h and 24 h. The samples were then analysed by means of RP-HPLC analysis and by LC-MS analysis. The determination of the toxophore released enabled the determination of the half-life t1/2 of the enzymatic reaction (FIG. 1).

Data set [1] can be described thus: Stability in rat liver lysosomes. The format is in vitro ADME. Conditions: rat liver lysosomal extract, 37° C.; for extent of cleavage in the lysosomal stability assay: within 24 h. The protocol:
To determine the lysosomal stability of compounds RM-A and RM-B, lysosomal enzymes were isolated from rat liver cells. Compounds A and B were each added to this lysosomal extract in order to examine stability under lysosomal conditions. The proteolytic enzyme legumain is expressed only in a very small amount, if any, in rat liver lysosomes (Chen, J-M. et al 1997). To monitor the enzymatic activity of the lysosomal enzymes, a cathepsin-specific substrate was added.
First of all, a fresh rat liver was removed, weighed and immediately placed on ice in homogenization medium (0.25 M sucrose, 1 mM EDTA, 10 mM HEPES, pH7). The liver was comminuted and a change of medium was undertaken. The rat livers were homogenized with 4 times the amount of the rat liver weight at 750 rpm in a Potter (B. Braun). The homogenate was centrifuged at 1000 g for 10 min and the supernatant was filtered. In the next step, with the aid of an ultracentrifuge, the “light mitochondrial fraction” (LMF) was centrifuged out of the supernatant at 26 500 g over 20 min. Also present in the pellet apart from mitochondria are the lysosomes. The supernatant was discarded and the pellet was resuspended with 0.8 ml/g of homogenization medium.
The sucrose was added from a 2.3 M stock solution of the particular percentage. 2.5 ml of isolated LMF were additionally added to the density stage with a sucrose content of 19%. Subsequently, the density stages were layered one on top of another in 10 ml centrifuge tubes and centrifuged at 48 500 g for 17 h. […] To monitor the lysis, the protein content of the lysed lysosomal fraction was monitored with the aid of a BCA assays (Pierce BCA protein assay kit).
To examine the lysosomal stability of compounds RM-A and RM-B, 6 μl of a 100 μg/ml stock solution (9 acetonitrile/1 DMSO) were added to 290 μl of 90 mM citrate buffer and 300 μl of lysosomal extract and incubated at 37° C. on an Eppendorf shaker. […] For the RP-HPLC LCMS analysis, the samples were diluted with 300 μl of 10 mM ammonium acetate buffer (pH 6.8) and analysed.

Data set [2] has as its target human kinesin spindle protein KSP/Eg5 (Homo sapiens (Human), UniProt P52732). Description: Inhibition of the kinesin spindle protein KSP/Eg5 (ATPase, malachite green). The data set is classed as biochemical. Conditions: Table 2; active metabolites; 10 nM KSP motor domain, 500 μM ATP. As to the method: The motor domain of the human kinesin spindle protein KSP/Eg5 (tebu-bio/Cytoskeleton Inc, No. 027EG01-XL) was incubated in a concentration of 10 nM with microtubuli (bovine or porcine, tebu-bio/Cytoskeleton Inc) stabilized with 50 μg/ml taxol (Sigma No. T7191-5MG) for 5 min at RT in 15 mM PIPES, pH 6.8 (5 mM MgCl2 and 10 mM DTT, Sigma). […] Incubation was at RT for 2 h. ATPase activity was detected by detecting the inorganic phosphate formed using malachite green (Biomol). […] The positive controls used were monastrol (Sigma, M8515-1 mg) and ispinesib (AdooQ Bioscience A10486). The individual data of the dose-activity curve are eight-fold determinations. The IC50 values are means of two independent experiments.

Another data set has as its system Caco-2 cells. Description: Caco-2 flux assay for cell permeability. The data set is classed as in vitro ADME. As to the method: The cell permeability of a substance can be investigated by means of in vitro testing in a flux assay using Caco-2 cells [M. D. Troutman and D. R. Thakker, Pharm. […] For this purpose, the cells were cultured for 15-16 days on 24-well filter plates. For the determination of permeation, the respective test substance was applied in a HEPES buffer to the cells either apically (A) or basally (B) and incubated for 2 hours. After 0 hours and after 2 hours, samples were taken from the cis and trans compartments. The samples were separated by HPLC (Agilent 1200, Böblingen, Germany) using reverse phase columns. The HPLC system was coupled via a Turbo Ion Spray Interface to a Triple Quadropol mass spectrometer API 4000 (AB SCIEX Deutschland GmbH, Darmstadt, Germany).
Of critical importance for toxophors which are released intracellularly is the permeability from B to A [Papp (B-A)] and the ratio of Papp (B-A) to Papp (A-B) (efflux ratio): the lower this permeability, the slower the active and passive transport processes of the substance through the monolayer of Caco-2 cells.

legumain, sequence (Q99538 18-323): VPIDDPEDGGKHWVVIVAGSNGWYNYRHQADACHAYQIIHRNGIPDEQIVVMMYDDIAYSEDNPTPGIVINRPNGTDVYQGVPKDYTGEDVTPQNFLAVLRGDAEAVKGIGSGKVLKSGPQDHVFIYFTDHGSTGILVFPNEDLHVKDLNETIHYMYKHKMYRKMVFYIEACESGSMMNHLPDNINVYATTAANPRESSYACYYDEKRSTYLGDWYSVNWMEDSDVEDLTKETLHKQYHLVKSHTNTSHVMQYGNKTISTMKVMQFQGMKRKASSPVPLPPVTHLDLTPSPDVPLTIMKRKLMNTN
human kinesin spindle protein KSP/Eg5, sequence (P52732 18-359): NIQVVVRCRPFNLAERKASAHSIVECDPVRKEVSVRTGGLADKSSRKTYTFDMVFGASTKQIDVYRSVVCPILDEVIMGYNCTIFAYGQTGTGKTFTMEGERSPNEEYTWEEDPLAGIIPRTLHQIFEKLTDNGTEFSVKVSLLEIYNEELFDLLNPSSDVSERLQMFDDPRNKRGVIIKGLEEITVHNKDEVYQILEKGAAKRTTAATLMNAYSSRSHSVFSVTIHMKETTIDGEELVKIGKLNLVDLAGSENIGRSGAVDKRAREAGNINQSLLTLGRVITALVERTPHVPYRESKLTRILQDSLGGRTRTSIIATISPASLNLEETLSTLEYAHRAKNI

Consider `CNC(=O)[C@H](CCN(C(=O)CO)[C@@H](c1cc(-c2cc(F)ccc2F)cn1Cc1ccccc1)C(C)(C)C)NC(=O)[C@H](CC(N)=O)NC(=O)Cc1ccncc1` [RM-B, N^1-[(2S)-4-[{(1R)-1-[1-Benzyl-4-(2,5-difluorophenyl)-1H-pyrrol-2-yl]-2,2-dimethylpropyl}(glycoloyl)amino]-1-(methylamino)-1-oxobutan-2-yl]-N^2-(pyridin-4-ylacetyl)-L-aspartamide], for which the half-life (commonly how long it takes for the measured level to halve) on legumain was around 10 h. In addition, the “extent of cleavage in the lysosomal stability assay” value in data set [1] was determined as 13%.
Consider `CNC(=O)[C@H](CCN(C(=O)CO)[C@@H](c1cc(-c2cc(F)ccc2F)cn1Cc1ccccc1)C(C)(C)C)NC(=O)[C@H](CCC(N)=O)NC(=O)Cc1ccncc1` [RM-C, N^1-[(2S)-4-[{(1R)-1-[1-Benzyl-4-(2,5-difluorophenyl)-1H-pyrrol-2-yl]-2,2-dimethylpropyl}(glycoloyl)amino]-1-(methylamino)-1-oxobutan-2-yl]-N^2-(pyridin-4-ylacetyl)-L-glutamide], for which, on legumain (rh legumain), the “cleavage by legumain (in words)” value is given as “not cleaved; also recorded: not possible to show any cleavage by legumain”.
Regarding `CC(C)(C)[C@H](c1cc(-c2cc(F)ccc2F)cn1Cc1ccccc1)N(CC[C@H](N)C(=O)NCCNC(=O)[C@@H](CCC(=O)O)NC(=O)CNC(=O)[C@H](CC(=O)O)SC[C@H](N)C(=O)O)C(=O)CO` [Example M2, trifluoroacetic acid salt], the IC50 (commonly the point on the concentration scale where inhibition reaches its midpoint) in data set [2] is 0.467 nM. In addition, the “transport from the cell and efflux ratio (in words)” value in the data set with Caco-2 cells (Caco-2) was “very low level of transport from the cell and a low efflux ratio”. In addition, the “Papp (B-A)” value in the data set with Caco-2 cells (Caco-2, basal to apical, 2 hours) came to 0.11 ×10⁻⁶ cm/s. Moreover, the Efflux ratio in the data set on Caco-2 cells (Caco-2, ratio of Papp (B-A) to Papp (A-B)) stood at 1.6.
Consider `CNC(=O)[C@H](CCN(C(=O)CO)[C@@H](c1cc(-c2cc(F)ccc2F)cn1Cc1ccccc1)C(C)(C)C)NC(=O)[C@H](CC(N)=O)NC(=O)[C@H](C)NC(=O)[C@H](C)NC(=O)Cc1ccncc1` [RM-A, N-(Pyridin-4-ylacetyl)-L-alanyl-L-alanyl-N^1-[(2S)-4-[{(1R)-1-[1-benzyl-4-(2,5-difluorophenyl)-1H-pyrrol-2-yl]-2,2-dimethylpropyl}(glycoloyl)amino]-1-(methylamino)-1-oxobutan-2-yl]-L-aspartamide], for which the half-life at legumain was 0.2 h. Also, in data set [1], the half-life at 1 µg/ml is around 6 h and the “extent of cleavage in the lysosomal stability assay” value is reported as “about 80%”.
